The text below walks through data of patent publication US6825191B2, “Benzodiazepine derivatives” (Ajinomoto Co., Inc., priority 2000, dated 2004).

One experiment deals with blood plasma. Put plainly: Determination of blood anticoagulating activity by prothrombin time (PT) determination method. The format is biochemical, human. To be noted: negative logarithm of concentration which elongated PT of the control to twice as long; blood plasma of healthy people. As for the experimental part: Determination of Blood Anticoagulating Activity
The blood anticoagulating activity was determined by a prothrombin time (PT) determination method. The PT was determined as follows: The blood was taken from healthy people. 3.8% aqueous trisodium citrate solution was added to the blood in a volume ratio of 1:10. The blood plasma was separated by the centrifugation. 5 μl of DMSO solution containing a test compound was added to 45 μl of the blood plasma. After the incubation apt room temperature for 2 minutes, a test tube containing the blood plasma solution was placed in Sysmex CA-3000 fully automatic blood coagulation determination device (a product of Toa Medical Electronics Co., Ltd), and incubated at 37° C. for 3 minutes. 100 μl of Sysmex PT II (rabbit brain tissue thromboplastin, 13.2 mM calcium chloride; a product of Toa Medical Electronics Co., Ltd) was fed into the test tube. PT was automatically determined with the device. A sample containing 5 μl of DMSO in place of the solution of the test compound was used as the control. The negative logarithm (pPT2) of the concentration of the test compound which elongated PT of the control to the twice as long was determined, and employed as the index of the blood anticoagulating activity.

The target of experiment [1] is T1, activated human blood coagulation factor X (Homo sapiens, UniProt P00742).
T1 construct: purchased Enzyme Research Co
T1 sequence (P00742 235-488 limits assumed): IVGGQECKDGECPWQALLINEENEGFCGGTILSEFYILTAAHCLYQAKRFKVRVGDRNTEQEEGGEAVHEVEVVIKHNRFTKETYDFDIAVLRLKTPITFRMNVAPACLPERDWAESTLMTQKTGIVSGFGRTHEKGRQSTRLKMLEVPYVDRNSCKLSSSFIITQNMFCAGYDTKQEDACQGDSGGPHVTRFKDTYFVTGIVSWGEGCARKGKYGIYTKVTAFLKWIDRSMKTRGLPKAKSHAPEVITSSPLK
T1 sequence (P00742 41-179 partner limits assumed): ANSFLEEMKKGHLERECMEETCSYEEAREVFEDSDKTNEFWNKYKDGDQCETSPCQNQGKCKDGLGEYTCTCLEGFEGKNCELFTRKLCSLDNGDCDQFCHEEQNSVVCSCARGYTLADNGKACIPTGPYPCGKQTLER
Nature of the experiment: Determination of activity of inhibiting the activated blood-coagulation factor X (chromogenic substrate, initial rate). The format is biochemical. To be noted: negative logarithm of concentration inhibiting 50% of initial rate, tris hydrochloride buffer pH 8.4, room temperature; for IC50: read-out: Activity of inhibiting activated blood coagulation factor X (pIC50) (converted). How it is done:
Determination of Activity of inhibiting the Activated Blood-coagulation Factor X
130 μl of 100 mM tris hydrochloride buffer adjusted to pH 8.4 was added to 10 μl of an aqueous solution of a compound to be tested. Then 10 μl of a 0.5 unit/ml solution of activated human blood coagulation factor X (a product of Enzyme Research Co.) in tris hydrochloride buffer of pH 8.4 was added to the resultant mixture. After the incubation at room temperature for 10 minutes, 50 μl of a solution of N-benzoyl-L-isoleucyl-L-glutamyl-glycyl-L-arginyl-P-nitroanilide hydrochloride (a product of Peptide Institute Inc.) adjusted to 0.8 mM with tris hydrochloride (pH 8.4) was added thereto. The a absorbance was determined and then the initial reaction rate was determined. A control was prepared in the same manner as that described above except that the solution of the compound to be tested was replaced with 10 μl of tris hydrochloride buffer adjusted to pH 8.4. The absorbance was determined with MICROPLATE READER Model 3550-UV (a product of BIO RAD) at a wave length of 405 nm at intervals of 15 seconds for 16 minutes.

In a further experiment the target is T2, human thrombin (Homo sapiens, UniProt P00734).
T2 construct: solution of human thrombin (a product of SIGMA Co.); purchased SIGMA Co
Nature of the experiment: Determination of thrombin-inhibiting activity (chromogenic substrate S-2238, initial rate). The format is biochemical. As to conditions: negative logarithm of concentration inhibiting 50% of initial rate, tris hydrochloride buffer pH 8.4, room temperature; for IC50: read-out: Thrombin-inhibiting activity (pIC50) (converted). How it is done: Determination of Thrombin-inhibiting Activity
130 μL of 100 mM tris hydrochloride buffer adjusted to pH 8.4 was added to 10 μl of an aqueous solution of a test compound. Then 10 μl of a solution of human thrombin (a product of SIGMA Co.) adjusted to 2 units/ml with tris hydrochloride buffer of pH 8.4 was added to the resultant mixture. After the incubation at room temperature for 10 minutes, 50 μl of a solution of D-phenylalanine-L-pipecolyl-L-arginine-P-nitroanilide dihydrochloride (S-2238; a product of Daiichi Kagaku Yakuhin Co.) adjusted to 0.4 mM with tris hydrochloride buffer of pH 8.4 was added thereto. The absorbance was determined and then the initial reaction rate was determined. A control was prepared in the same manner as that described above except that the solution of the compound to be tested was replaced with 10 μl of tris hydrochloride buffer adjusted to pH 8.4. The absorbance was determined with MICROPLATE READER Model 3550-UV (a product of BIO RAD) at a wave length of 405 nm at intervals of 15 seconds for 16 minutes. The negative logarithm (pIC50) of a concentration of the test compound which inhibits 50% of the activity (initial rate) of the thrombin in the absence of the test compound was determined, and employed as the index of the activity of inhibiting thrombin.

Counter-ions that a name gives are not always drawn.

As to `CN1CC[N+](C)=C1N1CCC(CCN2C(=O)CN(C(=O)c3ccc(Cl)cc3)Cc3ccccc32)CC1.O=C([O-])C(F)(F)F` [Compd. of Ex. 178, 4-(4-chlorobenzoyl)-1-[2-(1-(1,3-dimethyl-4,5-dihydro-1H-imidazo-3-ium-2-yl)-4-piperidinyl)ethyl]-1,3,4,5-tetra-hydrobenzo[e][1,4]diazepin-2-on trifluoroacetate], the “Human blood anticoagulating activity (pPT2)” value in the experiment with blood plasma is 5.8. Also, the “Activity of inhibiting activated blood coagulation factor X (pIC50)” value in experiment [1] is 7.1. Also, at human thrombin, the “Thrombin-inhibiting activity (pIC50)” value is recorded as less than 4.0.
In the case of `N=C(c1ccc(CN2C(=O)CN(C(=O)c3ccc(Cl)cc3)Cc3ccccc32)cc1)N1CC=CC1.O=C(O)C(F)(F)F` [Compd. of Ex. 107, 4-(4-chlorobenzoyl)-1-[4-(2,5-dihydro-1H-pyrrol-1-yl(imino)methyl)benzyl]-1,3,4,5-tetrahydrobenzo[e][1,4]-diazepin-2-on trifluoroacetate], the “Human blood anticoagulating activity (pPT2)” value in the experiment on blood plasma is listed as 5.5. In addition, the IC50 was 50.1 nM in experiment [1] and more than 100000 nM on human thrombin.
In the case of `O=C(O)C(F)(F)F.O=C(c1ccc(Cl)cc1)N1CC(=O)N(CC2CCN(C3CCCCC3)CC2)c2ccccc2C1` [Compd. of Ex. 143, 4-(4-chlorobenzoyl)-1-[(1-cyclohexyl-4-piperidinyl)methyl]-1,3,4,5-tetrahydrobenzo[e][1,4]diazepin-2-on mono(trifluoroacetate)], the “Human blood anticoagulating activity (pPT2)” value in the experiment with blood plasma amounted to 5.4. For the same compound, the IC50 in experiment [1] was 316 nM; on human thrombin, 63100 nM.
The matching figures for `CN1CCN=C1c1ccc(CN2C(=O)CN(C(=O)c3ccc(Cl)cc3)Cc3c(Cl)cccc32)cc1.O=C(O)C(F)(F)F` [Compd. of Ex. 122, 6-chloro-4-(4-chlorobenzoyl)-1-[4-(1-methyl-4,5-dihydro-1H-imidazol-2-yl)benzyl]-1,3,4,5-tetrahydrobenzo[e][1,4]-diazepin-2-on trifluoroacetate]: 5.6, 50.1 nM and more than 100000 nM.
The corresponding values for `O=C(c1ccc(CN2C(=O)CN(C(=O)c3ccc(Cl)cc3)Cc3ccc(CCCO)cc32)cc1)N1CC=CC1` [Compd. of Ex. 90] are 5.0, 39.8 nM and 79400 nM.
For the compound `CN1CCN=C1c1ccc(CN2C(=O)CN(C(=O)c3ccc(Cl)cc3)Cc3ccccc32)cc1.O=C(O)C(F)(F)F` [Compd. of Ex. 125, 4-(4-chlorobenzoyl)-1-[4-(1-methyl-4,5-dihydro-1H-imidazol-2-yl)benzyl]-1,3,4,5-tetrahydrobenzo[e][1,4]-diazepin-2-on trifluoroacetate], in the experiment on blood plasma, the “Human blood anticoagulating activity (pPT2)” value came to 5.6. For the same compound, the IC50 in experiment [1] is 251 nM; on human thrombin, more than 100000 nM.
On to `CC(C)N1CCC(CN2C(=O)CN(C(=O)c3ccc(Cl)cc3)Cc3ccccc32)CC1.O=C(O)C(F)(F)F` [Compd. of Ex. 142, 4-(4-chlorobenzoyl)-1-[(1-isopropyl-4-piperidinyl)methyl]-1,3,4,5-tetrahydrobenzo[e][1,4]diazepin-2-on trifluoroacetate], for which the “Human blood anticoagulating activity (pPT2)” value in the experiment with blood plasma was 5.5. Further, the IC50 is 794 nM in experiment [1] and 39800 nM at human thrombin.
Regarding `O=C(c1ccc(Cl)s1)N1CC(=O)N(CC2CCN(c3ccncc3)CC2)c2ccccc2C1` [Compd. of Ex. 24, 4-(5-chlorothiophene-2-carbonyl)-1-[1-(4-pyridyl)-4-piperidylmethyl]-1,3,4,5-tetrahydrobenzo[e][1,4]diazepin-2-on trifluoroacetate], the IC50 in experiment [1] was 794 nM; on human thrombin, more than 100000 nM.
Consider `O=C(O)CCc1ccc2c(c1)N(Cc1ccc(C(=O)N3CC=CC3)cc1)C(=O)CN(C(=O)c1ccc(Cl)cc1)C2` [Compd. of Ex. 65, 3-[4-(4-chlorobenzoyl)-2-oxo-1-[4-(2,5-dihydro-1H-pyrrol-1-ylcarbonyl)benzyl]-2,3,4,5-tetrahydro-1H-benzo[e][1,4]-diazepin-8-yl]propionic acid], for which the “Human blood anticoagulating activity (pPT2)” value with blood plasma was 4.7. Further, the IC50 in experiment [1] is 39.8 nM.
